The values below come from patent publication US11660298B1, “Preventing thermal trauma by pre-treatment with Icilin” (priority 2019, dated 2023).

Experiment [1] relates to Human Foreskin Fibroblasts (HFF). As to the kind of experiment: Fibroblast viability in the in vitro burn model (MTS / trypan blue exclusion). In kind it is cell-based. The conditions noted are these: thermally challenged fibroblasts (50° C., 7.5 minutes), Icilin pre-treatment 0.0002-0.02 nM in DMSO, vs untreated burned fibroblasts, about 24 hours after burning. On the procedure: Human Foreskin Fibroblasts (HFF) (ATCC, Manassas, Va.) were cultured in Dulbecco's Modified Eagle Medium Nutrient Mixture F-12 with 10% Fetal Bovine Serum, 1% penicillin streptomycin. 0.05% Trypsin EDTA was used for subculture (Invitrogen, Grand Isl., N.Y.). Cells were incubated at 370 Celsius and 5% CO2, and grown in 96 well, T25 or T75 Corning Tissue Culture vessels. When cells became confluent, they were trypsinized using 0.05% trypsin/EDTA. Cells used for the various assays were plated at 0.2×10^6 cells/mL unless otherwise noted. Fibroblasts were selected due to their critical role in skin wound recovery. Fibroblasts were fluorescently imaged with a Nikon Eclipse TS100 Microscope (Nikon, Melville, N.Y.). An in vitro burn model was created to replicate the severity of a third-degree burn. Cells were plated in a Polystyrene 96 Well Plate (100 μL per well) then burned in a VWR Incubating Micro Plate Shaker (VWR, Bridgeport, N.J.) via its adjustable heat setting. Thermal trauma (burning) was determined to take place at 50° C. for a total of 7.5 minutes (FIG. 1b). This temperature represented cell viability >50% 24 hours after the thermal injury treatment. […] Proliferation was determined using the MTS assay. […] The 96-well plate was read to measure absorbance at 490 nm using a microplate reader (BioTek, Winooski, Vt.). Viability was determined by trypan blue exclusion assays. […]

The test system of a further experiment is Interleukin-6 (IL-6). As to the kind of experiment: Indirect ELISA of IL-6 expression in fibroblasts. In kind it is cell-based, Human. As for the experimental part:
(§1) Human Foreskin Fibroblasts (HFF) (ATCC, Manassas, Va.) were cultured in Dulbecco's Modified Eagle Medium Nutrient Mixture F-12 with 10% Fetal Bovine Serum, 1% penicillin streptomycin. 0.05% Trypsin EDTA was used for subculture (Invitrogen, Grand Isl., N.Y.). Cells were incubated at 370 Celsius and 5% CO2, and grown in 96 well, T25 or T75 Corning Tissue Culture vessels. When cells became confluent, they were trypsinized using 0.05% trypsin/EDTA. Cells used for the various assays were plated at 0.2×10^6 cells/mL unless otherwise noted. Fibroblasts were selected due to their critical role in skin wound recovery. Fibroblasts were fluorescently imaged with a Nikon Eclipse TS100 Microscope (Nikon, Melville, N.Y.). An in vitro burn model was created to replicate the severity of a third-degree burn. Cells were plated in a Polystyrene 96 Well Plate (100 μL per well) then burned in a VWR Incubating Micro Plate Shaker (VWR, Bridgeport, N.J.) via its adjustable heat setting. Thermal trauma (burning) was determined to take place at 50° C. for a total of 7.5 minutes (FIG. 1b). This temperature represented cell viability >50% 24 hours after the thermal injury treatment. Temperature of plate was confirmed using a Fluke 63 Infrared Thermometer (Fluke, Phoenix, Ariz.). […] The 96-well plate was read to measure absorbance at 405 nm in a microplate reader (BioTek, Winooski, Vt.).
For orientation: In an ELISA, binding on a coated surface is turned into a signal by an enzyme label.

The subject of the next experiment is Interleukin-8 (IL-8). Briefly: Indirect ELISA of IL-8 expression in fibroblasts. It counts as cell-based, Human. The settings on record: non-thermally challenged and thermally challenged fibroblasts, Icilin 0.0002-0.02 nM. As for the experimental part:
as §1

For another experiment, the system named is Interleukin-1β (IL-1β). Briefly: Indirect ELISA of IL-1β expression in fibroblasts. It counts as cell-based, Human. As for the experimental part: as §1
Experiment [2] has as its system Tumor Necrosis Factor-α (TNF-α). Briefly: Indirect ELISA of TNF-α expression in fibroblasts. In kind it is cell-based, Human. As for the experimental part: as §1
Experiment [3] deals with Reactive Oxygen Species (ROS). As to the kind of experiment: ROS-Glo H2O2 assay of Reactive Oxygen Species in fibroblasts. It counts as cell-based, Human. On the procedure:
Human Foreskin Fibroblasts (HFF) (ATCC, Manassas, Va.) were cultured in Dulbecco's Modified Eagle Medium Nutrient Mixture F-12 with 10% Fetal Bovine Serum, 1% penicillin streptomycin. 0.05% Trypsin EDTA was used for subculture (Invitrogen, Grand Isl., N.Y.). Cells were incubated at 370 Celsius and 5% CO2, and grown in 96 well, T25 or T75 Corning Tissue Culture vessels. When cells became confluent, they were trypsinized using 0.05% trypsin/EDTA. Cells used for the various assays were plated at 0.2×10^6 cells/mL unless otherwise noted. Fibroblasts were selected due to their critical role in skin wound recovery. Fibroblasts were fluorescently imaged with a Nikon Eclipse TS100 Microscope (Nikon, Melville, N.Y.). An in vitro burn model was created to replicate the severity of a third-degree burn. Cells were plated in a Polystyrene 96 Well Plate (100 μL per well) then burned in a VWR Incubating Micro Plate Shaker (VWR, Bridgeport, N.J.) via its adjustable heat setting. Thermal trauma (burning) was determined to take place at 50° C. for a total of 7.5 minutes (FIG. 1b). This temperature represented cell viability >50% 24 hours after the thermal injury treatment. […] ROS was measured through ROS-GIo™ H2O2 Assay (Promega, Madison, Wis.). […] The well plate was then incubated at room temperature for 20 minutes then measured for luminescence (see FIG. 7).

Experiment [4] has as its system Transient receptor potential cation channel subfamily M member 8 (TRPM8). As to the kind of experiment: TRPM8 expression levels in fibroblasts. It counts as cell-based, Human. As for the experimental part: Human Foreskin Fibroblasts (HFF) (ATCC, Manassas, Va.) were cultured in Dulbecco's Modified Eagle Medium Nutrient Mixture F-12 with 10% Fetal Bovine Serum, 1% penicillin streptomycin. 0.05% Trypsin EDTA was used for subculture (Invitrogen, Grand Isl., N.Y.). Cells were incubated at 370 Celsius and 5% CO2, and grown in 96 well, T25 or T75 Corning Tissue Culture vessels. When cells became confluent, they were trypsinized using 0.05% trypsin/EDTA. Cells used for the various assays were plated at 0.2×10^6 cells/mL unless otherwise noted. Fibroblasts were selected due to their critical role in skin wound recovery. Fibroblasts were fluorescently imaged with a Nikon Eclipse TS100 Microscope (Nikon, Melville, N.Y.). An in vitro burn model was created to replicate the severity of a third-degree burn. Cells were plated in a Polystyrene 96 Well Plate (100 μL per well) then burned in a VWR Incubating Micro Plate Shaker (VWR, Bridgeport, N.J.) via its adjustable heat setting. Thermal trauma (burning) was determined to take place at 50° C. for a total of 7.5 minutes (FIG. 1b). This temperature represented cell viability >50% 24 hours after the thermal injury treatment. Temperature of plate was confirmed using a Fluke 63 Infrared Thermometer (Fluke, Phoenix, Ariz.). […]

In another experiment the target is TRPM8 (Homo sapiens, UniProt Q7Z2W7). The conditions noted are these: super-cooling chemical; comparison with menthol; cited from earlier work.
[5] abbreviates: non-thermally challenged fibroblasts, all Icilin concentrations.

TRPM8, sequence (Q7Z2W7 whole entry, species assumed): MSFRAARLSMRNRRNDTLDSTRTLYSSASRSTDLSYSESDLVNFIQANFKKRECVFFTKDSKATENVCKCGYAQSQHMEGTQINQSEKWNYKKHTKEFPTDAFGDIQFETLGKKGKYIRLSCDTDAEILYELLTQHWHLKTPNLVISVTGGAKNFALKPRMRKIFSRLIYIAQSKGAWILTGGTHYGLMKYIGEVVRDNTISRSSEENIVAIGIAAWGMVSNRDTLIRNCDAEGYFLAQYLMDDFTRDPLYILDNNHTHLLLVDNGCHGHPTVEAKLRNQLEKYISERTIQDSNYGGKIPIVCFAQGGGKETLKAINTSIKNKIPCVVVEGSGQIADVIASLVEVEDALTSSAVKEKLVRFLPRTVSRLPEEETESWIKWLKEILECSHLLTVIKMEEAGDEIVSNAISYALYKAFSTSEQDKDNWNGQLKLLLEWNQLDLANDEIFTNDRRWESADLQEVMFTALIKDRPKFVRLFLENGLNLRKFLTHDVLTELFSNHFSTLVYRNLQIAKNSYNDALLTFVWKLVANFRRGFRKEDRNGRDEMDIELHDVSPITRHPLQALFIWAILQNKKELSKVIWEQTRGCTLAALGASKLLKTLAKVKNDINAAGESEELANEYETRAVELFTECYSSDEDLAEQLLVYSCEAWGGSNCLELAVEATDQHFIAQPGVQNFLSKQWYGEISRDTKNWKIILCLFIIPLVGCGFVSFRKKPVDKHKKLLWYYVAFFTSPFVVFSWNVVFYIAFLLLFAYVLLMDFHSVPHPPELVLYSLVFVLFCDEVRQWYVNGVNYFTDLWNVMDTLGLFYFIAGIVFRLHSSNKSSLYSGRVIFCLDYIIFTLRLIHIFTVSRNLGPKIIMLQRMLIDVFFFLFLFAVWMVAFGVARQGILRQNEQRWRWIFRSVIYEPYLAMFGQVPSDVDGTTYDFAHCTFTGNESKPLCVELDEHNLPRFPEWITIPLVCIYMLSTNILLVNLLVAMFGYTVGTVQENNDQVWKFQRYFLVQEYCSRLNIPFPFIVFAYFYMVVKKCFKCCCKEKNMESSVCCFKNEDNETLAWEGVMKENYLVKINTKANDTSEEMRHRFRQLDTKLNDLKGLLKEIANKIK

Turning to `O=C1NC(c2cccc([N+](=O)[O-])c2)=CCN1c1ccccc1O` [Icilin], the fibroblast viability entry in experiment [1] is recorded as “significantly higher than the untreated burned fibroblasts”. The IL-6 expression result is on record as “increased IL-6 expression” with Interleukin-6 (IL-6) (non-thermally challenged fibroblasts, Icilin 0.0002-0.02 nM) and “significant decrease in IL-6 expression” with Interleukin-6 (IL-6) (thermally challenged fibroblasts, Icilin pre-treatment 0.0002-0.02 nM). In addition, in the experiment with Interleukin-8 (IL-8), the IL-8 expression entry is “no noteworthy effect on IL-8 expression”. In the experiment with Interleukin-1β (IL-1β) (non-thermally challenged fibroblasts, increasing concentrations of Icilin), the IL-1β expression result was “IL-1β expression also increases”. Moreover, the “IL-1β levels compared with non-thermally challenged fibroblasts at the same Icilin concentration” value with Interleukin-1β (IL-1β) (thermally challenged fibroblasts, Icilin pre-treatment, all concentrations) is given as “below the levels of the non-thermally challenged fibroblasts”. Moreover, the TNF-α expression result is on record as “steady increase in TNF-α expression” in experiment [2] (fibroblasts without thermal treatment, increasing Icilin concentrations) and “dropped significantly” in experiment [2] (thermally challenged fibroblasts, Icilin pre-treatment, increasing concentrations). Moreover, the ROS levels entry is “significantly reduces ROS levels” in experiment [3] (setting [5]) and “essentially restore ROS levels of thermally challenged fibroblasts to their normal quantities” in experiment [3] (thermally challenged fibroblasts, Icilin pre-treatment at 0.02 nM). The TRPM8 expression entry in experiment [4] (setting [5]) is “significantly increased”; in experiment [4] (thermally challenged fibroblasts, Icilin pre-treatment), “increase in TRPM8 expression was maintained”. Further, the “potency relative to menthol” value at TRPM8 is 200 times.
